Reference: publication PMC3459575 (Clinical Interventions in Aging, 2012)

Key:
[1] = biological target: T1, 5α-reductase type 2 (Homo sapiens, UniProt P31213); assay type: cell-based
T1 sequence (P31213 1-254): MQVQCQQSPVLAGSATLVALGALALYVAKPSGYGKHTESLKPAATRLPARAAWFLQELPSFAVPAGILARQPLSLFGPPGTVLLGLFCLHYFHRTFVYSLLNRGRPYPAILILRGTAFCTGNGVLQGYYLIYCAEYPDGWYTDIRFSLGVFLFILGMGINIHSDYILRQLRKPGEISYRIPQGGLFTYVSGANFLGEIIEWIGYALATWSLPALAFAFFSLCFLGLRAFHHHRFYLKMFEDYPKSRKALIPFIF

[2] = biological target: T2, 5α-reductase type 1 (Homo sapiens, UniProt P18405); assay type: cell-based
T2 sequence (P18405 1-259): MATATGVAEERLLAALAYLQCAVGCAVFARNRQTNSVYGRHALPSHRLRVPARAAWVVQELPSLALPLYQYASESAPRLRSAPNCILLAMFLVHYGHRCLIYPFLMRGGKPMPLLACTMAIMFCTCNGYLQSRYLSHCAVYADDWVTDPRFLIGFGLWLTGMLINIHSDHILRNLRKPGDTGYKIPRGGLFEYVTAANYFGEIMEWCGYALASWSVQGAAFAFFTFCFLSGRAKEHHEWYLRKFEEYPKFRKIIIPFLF

CC(C)(C)NC(=O)[C@H]1CC[C@H]2[C@@H]3CC[C@H]4NC(=O)C=C[C@]4(C)[C@H]3CC[C@]12C [finasteride]
IC50 [1]: ~100 nM
IC50 [2]: ~800 nM
